{
  "source": "paper PMC12195231",
  "about": "“Afil, a Lectin from Aplysina fistularis, Exhibits Antibiofilm and Synergistic Antibacterial Activity Against Resistant Bacteria” (Microorganisms, 2025)",
  "biological_target": "T1, AfiL",
  "T1 construct": "native, purified from sponge tissue (ammonium sulfate, Sepharose 4B, lactose elution); 70 kDa disulfide-linked dimer, ~30 kDa subunits; internal stretch […]",
  "experiment": "isothermal titration calorimetry",
  "assay_type": "binding, Aplysina fistularis",
  "details": "TBS (20 mM Tris-HCl pH 7.6, 150 mM NaCl), 25 °C; one-set-of-sites model",
  "data": [
    {"smiles": "OC[C@H]1O[C@@H](O[C@H]2[C@H](O)[C@@H](O)C(O)O[C@@H]2CO)[C@H](O)[C@@H](O)[C@H]1O", "note": "(stereo partly drawn) [D-lactose]", "values": [
      {"measurement": "Kd", "result": 10.2, "unit": "µM"}
    ]}
  ]
}
